From patent publication EP3889262A1, “INHIBITION OF CASPASE-3 BY THE MICRORNA 126-5P” (Ludwig-Maximilians-Universität München, priority 2020, dated 2021)
Peptide text beside a SMILES is read from it. * marks the point of attachment. Cbz = O=C(OCc1ccccc1)*; CH2F = FC*

Key:
HUVECs = experiment: qPCR of miR-126 strand amounts and nucleo-cytoplasmic distribution in HUVECs; type: cell-based, human; details: for nuclear miR-126-5p: fractional qPCR, ivermectin with rapamycin, 3-methyladenine with KLF2 overexpression
Protocol: HUVECs were treated with rapamycin (Santa Cruz Biotechnology) at 5 µM, ivermectin (Santa Cruz Biotechnology) at […], 3-methyladenine (Sigma Aldrich) at 5 mM, and/or camptothecin (Abcam) at 500 nM. Unless stated otherwise, treatment was applied for 3 h to analyze early processes and to avoid activation of concomitant or compensatory mechanisms. RNA interference technology was applied to generate specific knockdowns with siRNA against ATG5, ATG7, Mex3a (Qiagen). Functional studies on miRNA function were carried with miScript miRNA mimics and inhibitors of miR-126-5p (Qiagen). Overexpression of KLF2 and Mex3a were obtained by pCMV-hKLF2 and pCMV-hMex3a plasmids. Transfections were performed by electroporation using Amaxa Nucleofector technology (Lonza) or Lipofectamine™ 2000 (ThermoFisher Scientific) according to the manufacturer's protocols.

recombinant caspase-3 = target: T1, recombinant caspase-3 (Homo sapiens, UniProt P42574); experiment: Cell-free analysis of caspase-3 activity (substrate cleavage); type: biochemical; details: substrate cleavage by recombinant caspase-3, cell-free
T1 sequence (P42574 29-175 limits assumed): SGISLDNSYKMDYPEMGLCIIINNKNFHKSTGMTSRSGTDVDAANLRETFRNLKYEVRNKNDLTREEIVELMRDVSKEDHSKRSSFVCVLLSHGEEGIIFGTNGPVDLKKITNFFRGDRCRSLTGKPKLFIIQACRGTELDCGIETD
T1 sequence (P42574 176-277 limits assumed): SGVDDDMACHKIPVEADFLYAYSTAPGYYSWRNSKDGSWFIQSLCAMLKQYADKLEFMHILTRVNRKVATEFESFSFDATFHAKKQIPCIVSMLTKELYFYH

| Compound | nuclear miR-126-5p (HUVECs) | other results |
| --- | --- | --- |
| Cn1cnc(N)c2ncnc1-2 [3-methyladenine] | blunted | – |
| ivermectin | prevented | – |
| COC(=O)C[C@H](NC(=O)[C@H](C)NC(=O)[C@@H](NC(=O)OCc1ccccc1)C(C)C)C(=O)CF [Z-VAD-FMK] (Cbz-Val-Ala-Asp(OMe)-CH2F) | – | IC50 (recombinant caspase-3): 75.9 µM |
| CO/C1=C\C(C)=C\[C@@H](C)[C@@H](O)[C@@H](C)C/C(C)=C/C=C/[C@H](OC)[C@@H]([C@@H](C)[C@@H](O)[C@H](C)[C@@]2(O)C[C@@H](O)[C@H](C)[C@@H](C(C)C)O2)OC1=O [bafilomycin] | – | amount of miR-126-3p (HUVECs; ECs): restored |
